Common to all, as to type: biochemical
One assay addresses α-amylase. The assay is described as follows: in vitro enzyme inhibition assay (Wickramaratne method). Particulars: read-out: The in vitro median inhibitory concentrations (IC50 ± SE) (μM) / Anti-diabetic activity ^a / α-amylase.
In the next assay the target is α-glucosidase. The assay is described as follows: in vitro enzyme inhibition assay (Pistia-Brueggeman method). Particulars: read-out: The in vitro median inhibitory concentrations (IC50 ± SE) (μM) / Anti-diabetic activity ^a / α-glucosidase.
Assay [1] addresses acetylcholinesterase (AChE) (Homo sapiens, UniProt P22303). Briefly: Ellman's method, single-concentration percent inhibition.

acetylcholinesterase (AChE), sequence (P22303 32-614): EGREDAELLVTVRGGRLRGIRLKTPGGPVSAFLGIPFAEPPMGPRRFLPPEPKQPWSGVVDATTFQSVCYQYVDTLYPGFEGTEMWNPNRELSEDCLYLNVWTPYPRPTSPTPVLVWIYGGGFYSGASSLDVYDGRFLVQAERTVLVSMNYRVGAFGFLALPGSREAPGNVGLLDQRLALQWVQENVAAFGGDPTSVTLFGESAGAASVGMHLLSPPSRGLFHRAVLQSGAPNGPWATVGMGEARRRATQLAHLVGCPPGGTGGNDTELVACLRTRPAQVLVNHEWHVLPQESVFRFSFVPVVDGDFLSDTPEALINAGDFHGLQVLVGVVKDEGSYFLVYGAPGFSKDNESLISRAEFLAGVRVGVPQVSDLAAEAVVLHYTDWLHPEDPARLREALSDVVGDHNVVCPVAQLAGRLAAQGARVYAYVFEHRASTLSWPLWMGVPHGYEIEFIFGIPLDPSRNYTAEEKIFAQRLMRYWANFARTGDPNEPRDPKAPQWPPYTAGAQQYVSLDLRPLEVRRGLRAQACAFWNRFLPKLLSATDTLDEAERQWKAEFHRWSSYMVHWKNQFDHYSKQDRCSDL

As to `C=CCNc1nnc2c(N3CCCC3)nc3ccc(S(=O)(=O)N4CCCC4)cc3n12` [10a, N-Allyl-4-(pyrrolidin-1-yl)-8-(pyrrolidin-1-ylsulfonyl)-[1,2,4]triazolo[4,3-a]quinoxalin-1-amine], the IC50 on α-amylase was determined as 6.89 ± 0.09 µM; on α-glucosidase, 3.46 ± 0.06 µM.

As for `Cc1nnc2c(N3CCCC3)nc3cc(S(=O)(=O)N4CCCC4)ccc3n12` [11b, 1-Methyl-4-(pyrrolidin-1-yl)-7-(pyrrolidin-1-ylsulfonyl)-[1,2,4]triazolo[4,3-a]quinoxaline], in assay [1], the “The in vitro inhibitory percentage (IP ± SE) of the designed two isomers sulfonamide quinoxaline derivatives at 100 μM / Anti-Alzheimer activity ^a / AChE” value is on record as 44.78 ± 0.01.

The values are drawn from paper PMC12134304, “Exploring novel of 1,2,4-triazolo[4,3-a]quinoxaline sulfonamide regioisomers as anti-diabetic and anti-Alzheimer agents with in-silico molecular docking simulation” (Scientific Reports, 2025).
